Measurements published in patent US20260297081A1, “COMPOUNDS AND METHODS OF TREATING CANCERS” (Cullgen Inc., priority 2023, published 2026).

What follows are compounds tested on MCF7 cells (assay: Anti-proliferation (viability) of MCF7 cells (Table 7, FIG. 2B)). Conditions: Homo sapiens, MCF7, MCF7 cells, 3-6 days, 10-point serial dilution; read-out: GI IC50 in MCF-7.
Type: cell-based

Structure (SMILES) | IC50
CNc1ccc(C(=O)Nc2cn(C)c(C3CCCC3)n2)c(NC2CC3(CC(NC(=O)CN4CCN(c5ccc(Nc6ncc7c(C)c(C(C)=O)c(=O)n(C8CCCC8)c7n6)nc5)CC4)C3)C2)n1 (stereo not shown) [CPD-296, 2-((6-(2-(4-(6-((6-acetyl-8-cyclopentyl-5-methyl-7-oxo-7,8-dihydropyrido[2,3-d]pyrimidin-2-yl)amino)pyridin-3-yl)piperazin-1-yl)acetamido)spiro[3.3]heptan-2-yl)amino)-N-(2-cyclopentyl-1-methyl-1H-imidazol-4-yl)-6-(methylamino)nicotinamide] | > 100 nM
CNc1ccc(C(=O)Nc2ccc(N(C)C)nn2)c(NC2CC(C(=O)N3CCC4(CC3)CCN(c3ccc(Nc5ncc6c(C)c(C(C)=O)c(=O)n(C7CCCC7)c6n5)nc3)CC4)C2)n1 (stereo not shown) [CPD-337, 2-((3-(9-(6-((6-acetyl-8-cyclopentyl-5-methyl-7-oxo-7,8-dihydropyrido[2,3-d]pyrimidin-2-yl)amino)pyridin-3-yl)-3,9-diazaspiro[5.5]undecane-3-carbonyl)cyclobutyl)amino)-N-(6-(dimethylamino)pyridazin-3-yl)-6-(methylamino)nicotinamide] | > 100 nM
CC(=O)c1c(C)c2cnc(Nc3ccc(N4CCN(C5CN(C(=O)C6CC7(CC(Nc8nc(NC(C)C)ccc8C(=O)Nc8ccc(N(C)C)nn8)C7)C6)C5)CC4)cn3)nc2n(C2CCCC2)c1=O (stereo not shown) [CPD-401, 2-((6-(3-(4-(6-((6-acetyl-8-cyclopentyl-5-methyl-7-oxo-7,8-dihydropyrido[2,3-d]pyrimidin-2-yl)amino)pyridin-3-yl)piperazin-1-yl)azetidine-1-carbonyl)spiro[3.3]heptan-2-yl)amino)-N-(6-(dimethylamino)pyridazin-3-yl)-6-(isopropylamino)nicotinamide] | > 100 nM
CNc1ccc(C(=O)Nc2ccc(N(C)C)nn2)c(NC2CCC(N(C)C(=O)CN3CCN(c4ccc(Nc5ncc6c(C)c(C(C)=O)c(=O)n(C7CCCC7)c6n5)nc4)CC3)C2)n1 (stereo not shown) [CPD-430, 2-((3-(2-(4-(6-((6-acetyl-8-cyclopentyl-5-methyl-7-oxo-7,8-dihydropyrido[2,3-d]pyrimidin-2-yl)amino)pyridin-3-yl)piperazin-1-yl)-N-methylacetamido)cyclopentyl)amino)-N-(6-(dimethylamino)pyridazin-3-yl)-6-(methylamino)nicotinamide] | > 100 nM
CC(=O)c1c(C)c2cnc(Nc3ccc(N4CCC(N5CCC(C(=O)N6CCC(Nc7nc(NC(C)C)ccc7C(=O)Nc7ccc(N(C)C)nn7)CC6)C5)CC4)cn3)nc2n(C2CCCC2)c1=O (stereo not shown) [CPD-396, 2-((1-(1-(1-(6-((6-acetyl-8-cyclopentyl-5-methyl-7-oxo-7,8-dihydropyrido[2,3-d]pyrimidin-2-yl)amino)pyridin-3-yl)piperidin-4-yl)pyrrolidine-3-carbonyl)piperidin-4-yl)amino)-N-(6-(dimethylamino)pyridazin-3-yl)-6-(isopropylamino)nicotinamide] | > 100 nM
CNc1ccc(C(=O)Nc2ccc(N(C)C)nn2)c(NC2CC(N3CCC(CN4CCN(c5ccc(Nc6ncc7c(C)c(C(C)=O)c(=O)n(C8CCCC8)c7n6)nc5)CC4)C3)C2)n1 (stereo not shown) [CPD-319, 2-((3-(3-((4-(6-((6-acetyl-8-cyclopentyl-5-methyl-7-oxo-7,8-dihydropyrido[2,3-d]pyrimidin-2-yl)amino)pyridin-3-yl)piperazin-1-yl)methyl)pyrrolidin-1-yl)cyclobutyl)amino)-N-(6-(dimethylamino)pyridazin-3-yl)-6-(methylamino)nicotinamide] | > 100 nM
CNc1ccc(C(=O)Nc2ccc(N(C)C)nn2)c(NC2CC3(C2)CN(C(=O)C2CC4(CCN(c5ccc(Nc6ncc7c(C)c(C(C)=O)c(=O)n(C8CCCC8)c7n6)nc5)CC4)C2)C3)n1 (stereo not shown) [CPD-325, 2-((2-(7-(6-((6-acetyl-8-cyclopentyl-5-methyl-7-oxo-7,8-dihydropyrido[2,3-d]pyrimidin-2-yl)amino)pyridin-3-yl)-7-azaspiro[3.5]nonane-2-carbonyl)-2-azaspiro[3.3]heptan-6-yl)amino)-N-(6-(dimethylamino)pyridazin-3-yl)-6-(methylamino)nicotinamide] | > 100 nM
